According to publication PMC7335359, “Design and Synthesis of Dihydroxamic Acids as HDAC6/8/10 Inhibitors” (Chemmedchem, 2020):

Assays:
Type in all cases: cell-based
[1] = system: acetylation of the HDAC8 substrate SMC3; experiment: Western blot of SMC3 acetylation in SK-N-BE(2)C cells; settings: relative to solvent control
Experimental: Western blot analysis of SMC3, tubulin and histone H3 acetylation: For the analysis of protein acetylation, 1.5–2×10^6 SK‐N‐BE(2)‐C cells were seeded per 10 cm dish and allowed to adhere overnight. Cells were treated for 18 h (Figure 4B) or 6 h (Figure 4E) with inhibitors at concentrations indicated in the respective figure. […] Cell debris was removed by centrifugation (15 000 g for 10 min at 12 °C).

HDAC10 = target: T1, HDAC10 (Homo sapiens, UniProt Q969S8); experiment: cellular BRET HDAC10 target engagement assay (stably transfected HeLa cells); design: host or cells: HeLa (stably transfected mono-clones); settings: for IC50: read-out: HDAC10 BRET pIC50 (converted)
T1 sequence (Q969S8 1-669): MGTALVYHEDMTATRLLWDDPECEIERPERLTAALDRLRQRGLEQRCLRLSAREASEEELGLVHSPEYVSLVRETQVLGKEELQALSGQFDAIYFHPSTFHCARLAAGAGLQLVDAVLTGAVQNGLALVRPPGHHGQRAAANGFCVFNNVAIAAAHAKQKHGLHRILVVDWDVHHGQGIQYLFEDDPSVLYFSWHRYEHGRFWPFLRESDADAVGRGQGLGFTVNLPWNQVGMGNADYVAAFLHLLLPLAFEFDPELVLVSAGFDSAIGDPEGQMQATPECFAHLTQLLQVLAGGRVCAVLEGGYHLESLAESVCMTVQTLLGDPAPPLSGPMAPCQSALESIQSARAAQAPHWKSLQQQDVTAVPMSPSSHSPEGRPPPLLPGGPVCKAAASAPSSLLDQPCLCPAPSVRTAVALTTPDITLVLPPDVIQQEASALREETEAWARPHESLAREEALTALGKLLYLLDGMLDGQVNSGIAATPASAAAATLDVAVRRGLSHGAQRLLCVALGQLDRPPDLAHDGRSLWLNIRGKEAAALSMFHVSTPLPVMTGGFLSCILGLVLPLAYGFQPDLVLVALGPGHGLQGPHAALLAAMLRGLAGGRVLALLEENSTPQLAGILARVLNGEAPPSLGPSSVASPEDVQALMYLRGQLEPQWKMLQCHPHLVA
Experimental: Production of mono‐clones stably expressing HDAC‐nanoBRET proteins: Plasmids expressing a fusion of HDAC10 with nanoluciferase were obtained from Promega (N2170). HeLa cells (0.75×10^6) were seeded in a 6 cm dish and after 24 h were transfected with a mix of 10 μg plasmid and 3 μL Fugene in 200 μL OptiMEM. In detail, cells were washed with pre‐warmed OptiMEM and subsequently overlaid with 2.3 mL of OptiMEM. After addition of 200 μL transfection mix, cells were incubated for 24 h at 37 °C. Cells were than trypsinized and 0.2×10^5 cells were seeded into both 10 cm and 15 cm dishes. Transformants were selected with 1 mg/mL G‐418 for 6 days with a media change after 3 days. Clones which formed colonies were picked by rinsing plates with 3 mL Trypsin/EDTA (Sigma T3924) followed by a 2 min incubation with 300 μL Trypsin/EDTA at 37 °C. Colonies were then loosened and aspirated with a 10 μL filter tip and transferred to 24‐well plates containing selection medium.
Culture of stable BRET cell lines: Stably transfected HeLa cells were cultivated under sterile conditions in polystyrene cell culture flasks (658170, Greiner) at 37 °C and 5 % CO2 in a humidified atmosphere. DMEM growth medium (D6049, Sigma) was supplemented with 10 % FCS (FBS‐12A, Capricorn Scientific), 1 % penicillin‐streptomycin (P4333, Sigma) and 1 mg/mL Geneticin (2039.3, Roth). At confluency, cells were passaged by removing old medium, DPBS (14190‐094, gibco) wash, trypsination (T4049, Sigma) and seeding in fresh growth medium.
BRET assay: The intracellular target engagement assay on HDAC10 was performed as described by the kit manufacturer in a 96‐well plate (3600, Corning) format with 1.9×10^4 cells per well and a tracer concentration of 0.3 μM. […] Drug dosing was performed from 10 mM and 1 mM DMSO stock solutions with a D300e Digital Dispenser (Tecan), DMSO concentrations were normalized to 0.5 % for all wells. Assay plates were incubated at 37 °C for 2 h followed by measurement of 450 nm and 650 nm luminescence (80 nm bandwidth) at room temperature with a CLARIOstar (BMG Labtech) plate reader 2 min after NanoLuc substrate addition.

[2] = system: acetylation of tubulin (HDAC6 substrate); experiment: Western blot of tubulin acetylation in SK-N-BE(2)C cells
Experimental: (§1) Western blot analysis of SMC3, tubulin and histone H3 acetylation: For the analysis of protein acetylation, 1.5–2×10^6 SK‐N‐BE(2)‐C cells were seeded per 10 cm dish and allowed to adhere overnight. Cells were treated for 18 h (Figure 4B) or 6 h (Figure 4E) with inhibitors at concentrations indicated in the respective figure. Cells were lysed in SDS lysis buffer (2 % w/v SDS, 10 % v/v glycerol, 1 mM DTT, 62.5 mM TRIS, pH 6.8) and proteins were denatured at 95 °C for 10 min. Cell debris was removed by centrifugation (15 000 g for 10 min at 12 °C). Western blot analysis was performed as described before.7a The following antibodies were used: anti‐acetylated tubulin (6‐11B‐1; Sigma) anti‐acetylated SMC3 (kindly provided by Katsuhiko Shirahige, Institute for Molecular and Cellular Biosciences, University of Tokyo, Japan),35 anti acetylated histone H3 (#06‐911, Millipore), anti histone H3 (#9715, Cell Signaling Technology) and anti β‐actin (#5441, Sigma‐Aldrich).

[3] = system: acetylation of histone H3 (HDAC1 substrate); experiment: Western blot of histone H3 acetylation in SK-N-BE(2)C cells
Experimental: as §1

[4] = cellular target engagement, one experiment in triplicate

Row | IC50 (HDAC10; [4]) [nM] | loss of potency between the FRET and BRET HDAC10 assays (HDAC10; BRET weaker than FRET) [fold] | HDAC10 BRET pIC50 (HDAC10; [4]) | Compound | acetylation of SMC3 (HDAC8 substrate), Western blot [1] | acetylation of tubulin (HDAC6 substrate), Western blot [2] | acetylation of histone H3 (HDAC1 substrate), Western blot [3]
1 | 158 |  |  | CN(C)Cc1nn(Cc2ccc(C(=O)NO)cc2)c2cc(C(=O)NO)ccc12 [Compound 3g] | no effect |  | 
2 | 15.1 | ~5 |  | O=C(NO)c1ccc(Cc2c[nH]c3ccc(C(=O)NO)cc23)cc1 [Compound 3d] | increases acetylation | increases acetylation | significantly weaker effects
3 |  |  | 7.80 | CN(C)Cc1nn(Cc2ccc(C(=O)NO)cc2)c2ccccc12 [Compound 1g] |  |  | 
